# According to EP0298890A2, “New 2-(P-isobutylphenyl)-propionic acid ester and process for the preparation thereof” (Sune Coma, Nuria, priority 1987, dated 1989):
# Legend:
# rat [1] = test: phenylbenzoquinone test p.o. in the rat (analgesic effect); assay type: in vivo; settings: comparison of ED₅₀ values
# solubility in water = assay type: physicochemical; settings: qualitative statement, no method given
# rat [2] = test: carrageenin test p.o. in the rat (antiinflammatory effect); assay type: in vivo; settings: comparison of ED₅₀ values
structure (smiles),measurement,setting,value
"CC(C)Cc1ccc(C(C)C(=O)OCCN(C)C)cc1 (stereo not drawn) [I, N,N-dimethylaminoethanol 2-(p-isobutylphenyl)-propionate]",analgesic activity compared with the formula II compound,rat [1],twice as active as an analgesic
same,solubility in water compared with the formula II acid,solubility in water,more soluble in water
same,antiinflammatory activity compared with the formula II compound,rat [2],same antiinflammatory activity
